Measurements from ChEMBL document CHEMBL1152435, “Efficacious 11beta-hydroxysteroid dehydrogenase type I inhibitors in the diet-induced obesity mouse model” (J Med Chem, 2009).

Experiments:
Cynomolgus monkey [1] = assay: Reduction of plasma insulin level in normal cynomolgus monkey at 1 mg/kg after 8 hrs; assay type: functional, Macaca fascicularis; parameters: scale not given: the % may be the effect or the level left
Cynomolgus monkey [2] = assay: Reduction of plasma insulin level in normal cynomolgus monkey at 3 mg/kg after 8 hrs; assay type: functional, Macaca fascicularis; parameters: scale not given: the % may be the effect or the level left
[3] = Metabolic stability in mouse liver microsomes; assay type: ADME, Microsome; settings: read-out: Stability
[4] = Metabolic stability in human liver microsomes; assay type: ADME, Microsome; settings: read-out: Stability

| half-life [3] [min] | half-life [4] [min] | Compound | Activity (Cynomolgus monkey [1]) [%] | Activity (Cynomolgus monkey [2]) [%] |
| --- | --- | --- | --- | --- |
| – | – | N#Cc1ccc(-c2ccc(S(=O)(=O)Nc3cccc(N)n3)cc2)cc1 | 54 | 60 |
| 12 | 17 | C[C@@H]1CN(c2ccc(F)cc2C(F)(F)F)CCN1S(=O)(=O)c1cccc(-n2cncn2)c1 | – | – |
